In patent publication US20090264421A1 (priority 2007, published 2009):

Assays:
thioredoxin = target: T1, thioredoxin (Escherichia coli, UniProt P0AA25); test: Thioredoxin activity assay (insulin precipitation); type: biochemical, E. coli; conditions: higher chaetocin concentrations; read-out: IC50, Trx activity inhibition
T1 construct: purchased Promega (Madison, Wis.)
Description: HeLa cells were obtained from ATCC.
Thioredoxin Activity Assay: The 100 μL reaction contained 100 mM potassium phosphate (pH 7.0), 2 mM EDTA, 0.13 mM bovine insulin, 3.9 μM E. coli thioredoxin and chaetocin as indicated. The reaction was initiated by addition of 0.33 mM DTT, and turbidity was monitored at 620 nm in a plate reader. The initial linear rate was calculated based on the slope of the line after an increase in absorbance (indicating precipitation of insulin) started to occur.

U266 myeloma cells = test: ROS (superoxide) by FACS with hydroethidium in U266 cells; type: cell-based, human; conditions: 200 nM, p<0.001
Description: FIG. 7. […] A549 cells were exposed to the indicated concentration of chaetocin for 24 hours, with addition of glutathione or diluent 30 minutes prior to chaetocin addition. Glutathione levels were assessed by spectrophotometric assay as described below. […] Cells were treated with 10 μM chaetocin for 20 minutes prior to assay, and calculated intracellular chaetocin levels were measured by HPLC with adjusted for differences in average cell volume (calculated from measured cell radii ascertained via light microscopy). Shaded area represents 1 standard deviation confidence interval, with central bar reflecting the mean relative intracellular chaetocin level. […] Cells from 4 myeloma patients were exposed to 200 μM hydrogen peroxide for 24 hours prior to assay, with trypan blue exclusion used to assess surviving cells.
Assessment of cellular oxidative stress: Cellular oxidative stress was assessed utilizing 5,6-chloromethyl-2′,7′-dichlorodihydrofluorescein diacetate or hydroethidium (Molecular Probes/Invitrogen, Carlsbad, Calif.) as cell permeable fluorescent probes and FACS analyses.

[1] = system: patient CD138+ myeloma cells and CD138- bone marrow cells; type: cell-based, human; conditions: 10 μM for 20 minutes, corrected for average cell volumes, 4 patients
Description: FIG. 7. Chaetocin induces oxidative stress in A549 cells without appreciable depletion of intracellular reduced glutathione levels, while the selective cytotoxicity of chaetocin in freshly collected myeloma cells appears to be attributable to their increased sensitivity to oxidative stressors. […] Chaetocin-induced increased oxidative species are attenuated by co-treatment with 10 mM NAC (C). D. Summary of results from FACS indicating changes of oxidative species induced in response to various treatments. Results shown are representative of three independent FACS experiments as described in the text; *p<0.05, **p<0.01. E. Effects of chaetocin or hydrogen peroxide (in comparison to diluent) on ROS (superoxide) levels in U266 myeloma cells as assessed using FACS analyses and hydroethidium as an ROS-sensitive FACS probe. Error bars indicate one sample standard deviation, results replicated in triplicate; ***p<0.001. […] Glutathione levels were assessed by spectrophotometric assay as described below. […] Cells were treated with 10 μM chaetocin for 20 minutes prior to assay, and calculated intracellular chaetocin levels were measured by HPLC with adjusted for differences in average cell volume (calculated from measured cell radii ascertained via light microscopy). […]

[2] = system: freshly collected sorted patient CD138+ myeloma cells; conditions: ex vivo, 24 hours, trypan blue exclusion
Description: FIG. 3. […] Survival indicated in A-E was assessed using a trypan blue exclusion assay, counting viable cells using a hemocytometer after 24 hour exposure to the indicated drugs and drug concentrations.
Patient bone marrow leukocytes were divided into myeloma (CD138+) and non-myeloma/normal leukocyte (CD138−) fractions employing sorting using magnetic bead technology in kit form (MACS CD138 microbeads, Miltenyi Biotech, Auburn, Calif.). Sorted cells were plated in a 96-well tissue culture plate at a concentration of 5×10^5 cells and dosed with indicated drug concentrations for 24 hours. Survival was assessed using a trypan blue exclusion assay.

T1 sequence (P0AA25 whole entry): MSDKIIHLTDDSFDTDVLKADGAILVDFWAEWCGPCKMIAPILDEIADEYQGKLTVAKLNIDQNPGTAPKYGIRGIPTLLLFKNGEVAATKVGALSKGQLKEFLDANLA

Question: Which IC50 (thioredoxin) does the source give for `CN1C(=O)[C@@]23C[C@]4([C@]56C[C@@]78SS[C@@](CO)(C(=O)N7[C@H]5Nc5ccccc56)N(C)C8=O)c5ccccc5N[C@@H]4N2C(=O)[C@]1(CO)SS3` [chaetocin] here?
Answer: ~90 µM

Question: What about the “peak shift (ROS, hydroethidium) relative to stained, untreated cells” value (U266 myeloma cells) of the same compound?
Answer: 43.26+3.67

Question: And the “intracellular accumulation in CD138- leukocytes versus CD138+ myeloma cells” value [1]?
Answer: no indication of lessened intracellular accumulation

Question: And the “effect on matched CD138- normal bone marrow leukocytes” value [2]?
Answer: largely sparing
